Source: patent US8309557B2, “Pyrimidin-4-ylpropanedinitrile derivatives, processes for their preparation and their use as herbicides and plant growth regulators” (Bayer Intellectual Property GmbH, priority 2009, dated 2012)

Key:
Format in all cases: in vivo
Matricaria inodora = test: Herbicidal effect post-emergence, MATIN
Procedure: (§1) Seeds of mono- and dicotyledonous weed plants and crop plants are planted in wood-fiber pots in sandy loam, covered with earth and grown in a greenhouse under good growth conditions. 2 to 3 weeks after sowing, the test plants are treated in the single-leaf stage. The compounds according to the invention, formulated in the form of wettable powders (WP) or as emulsion concentrates (EC), are then sprayed onto the green plant parts as aqueous suspension or emulsion using an application rate of 600 to 800 l of water/ha (converted) with the addition of 0.2% by weight of wetting agent. After the test plants had been in the greenhouse for ca. 3 weeks under optimum growth conditions, the effect of the preparations is scored visually in comparison with untreated controls (herbicidal effect in percent (%): 100% effect=plants have died off, 0% effect=as control plants).

[1] = test system: Polygonum (Fallopia) convolvulus; test: Herbicidal effect post-emergence, POLCO
Procedure: as §1

Veronica persica [2] = test: Herbicidal effect post-emergence, VERPE
Procedure: as §1

Abutilon theophrasti [3] = test: Herbicidal effect post-emergence, ABUTH
Procedure: as §1

Amaranthus retroflexus [4] = test: Herbicidal effect post-emergence, AMARE
Procedure: as §1

Ipomoea purpurea [5] = test: Herbicidal effect post-emergence, PHBPU
Procedure: as §1

Viola tricolor [6] = test: Herbicidal effect post-emergence, VIOTR
Procedure: as §1

Echinochloa crus-galli [7] = test: Herbicidal effect post-emergence, ECHCG
Procedure: as §1

Stellaria media [8] = test: Herbicidal effect post-emergence, STEME
Procedure: as §1

Abutilon theophrasti [9] = test: Herbicidal effect pre-emergence, ABUTH; conditions: for Effect in % in respect of stated plant, ABUTH: 320 g/hectare, visual grading after 3 weeks vs untreated controls
Text: (§2) Seeds of mono- and dicotyledonous weed plants and crop plants are planted in wood-fiber pots in sandy loam and covered with earth. The compounds according to the invention, formulated in the form of wettable powders (WP) or as emulsion concentrates (EC), are then applied to the surface of the covering earth as aqueous suspension or emulsion at an application rate corresponding to 320 g/hectare at an application rate of 600 to 800 l of water/ha (converted) with the addition of 0.2% wetting agent.
(§3) Following treatment, the pots are placed in a greenhouse and kept under good growth conditions for the test plants. The visual grading of the damage to the test plants is carried out after a test time of 3 weeks in comparison to untreated controls (herbicidal effect in percent (%): 100% effect=plants have died off, 0% effect=as control plants).

Amaranthus retroflexus [10] = test: Herbicidal effect pre-emergence, AMARE; conditions: for Effect in % in respect of stated plant, AMARE: 320 g/hectare, visual grading after 3 weeks vs untreated controls
Text: as §2, §3

[11] = test system: Tripleurospermum inodorum; test: Herbicidal effect pre-emergence, MATIN; conditions: 320 g/hectare, visual grading after 3 weeks vs untreated controls
Text: as §2, §3

Ipomoea purpurea [12] = test: Herbicidal effect pre-emergence, PHBPU; conditions: 320 g/hectare, visual grading after 3 weeks vs untreated controls
Text: as §2, §3

Polygonum convolvulus = test: Herbicidal effect pre-emergence, POLCO; conditions: 320 g/hectare, visual grading after 3 weeks vs untreated controls
Text: as §2, §3

Veronica persica [13] = test: Herbicidal effect pre-emergence, VERPE; conditions: 320 g/hectare, visual grading after 3 weeks vs untreated controls
Text: as §2, §3

Viola tricolor [14] = test: Herbicidal effect pre-emergence, VIOTR; conditions: 320 g/hectare, visual grading after 3 weeks vs untreated controls
Text: as §2, §3

Setaria viridis [15] = test: Herbicidal effect post-emergence, SETVI
Procedure: as §1

Lolium multiflorum = test: Herbicidal effect pre-emergence, LOLMU
Text: as §2, §3

Setaria viridis [16] = test: Herbicidal effect pre-emergence, SETVI; conditions: for Effect in % in respect of stated plant, SETVI: 320 g/hectare, visual grading after 3 weeks vs untreated controls
Text: as §2, §3

Alopecurus myosuroides = test: Herbicidal effect pre-emergence, ALOMY
Text: as §2, §3

Sinapis alba = test: Herbicidal effect pre-emergence, Sinapis alba; conditions: 0.32 kg of active substance per hectare, visual grading after 3 weeks
Text: as §2, §3

Avena fatua = test: Herbicidal effect pre-emergence, Avena fatua; conditions: 0.32 kg of active substance per hectare, visual grading after 3 weeks
Text: as §2, §3

Stellaria media [17] = test: Herbicidal effect pre-emergence, STEME; conditions: 0.32 kg of active substance per hectare, visual grading after 3 weeks
Text: as §2, §3

Echinochloa crus-galli [18] = test: Herbicidal effect pre-emergence, ECHCG; conditions: 0.32 kg of active substance per hectare, visual grading after 3 weeks
Text: as §2, §3

[19] = 320 g/hectare, visual grading after 3 weeks vs untreated controls
[20] = 0.32 kg of active substance per hectare, visual grading after 3 weeks

| Compound | Effect in % in respect of stated plant, MATIN (Matricaria inodora) [%] | Effect in % in respect of stated plant, POLCO [1] [%] | Effect in % in respect of stated plant, VERPE (Veronica persica [2]) [%] | Effect in % in respect of stated plant, ABUTH (Abutilon theophrasti [3]) [%] | Effect in % in respect of stated plant, AMARE (Amaranthus retroflexus [4]) [%] | Effect in % in respect of stated plant, PHBPU (Ipomoea purpurea [5]) [%] | Effect in % in respect of stated plant, VIOTR (Viola tricolor [6]) [%] | Effect in % in respect of stated plant, ECHCG (Echinochloa crus-galli [7]) [%] | Effect in % in respect of stated plant, STEME (Stellaria media [8]) [%] | Effect in % in respect of stated plant, ABUTH (Abutilon theophrasti [9]) [%] | Effect in % in respect of stated plant, AMARE (Amaranthus retroflexus [10]) [%] | Effect in % in respect of stated plant, MATIN [11] [%] | Effect in % in respect of stated plant, PHBPU (Ipomoea purpurea [12]) [%] | Effect in % in respect of stated plant, POLCO (Polygonum convolvulus) [%] | Effect in % in respect of stated plant, VERPE (Veronica persica [13]) [%] | Effect in % in respect of stated plant, VIOTR (Viola tricolor [14]) [%] | Effect in % in respect of stated plant, SETVI (Setaria viridis [15]) [%] | Effect in % in respect of stated plant, SETVI (Setaria viridis [16]) [%] | other results |
| --- | --- | --- | --- | --- | --- | --- | --- | --- | --- | --- | --- | --- | --- | --- | --- | --- | --- | --- | --- |
| N#CC(C#N)c1nc(C2CC2)nc(N)c1Cl [compound 249] | 90 | 90 | 100 | 83 | 93 | 90 | 87 | 90 | 80 | 90 | 90 | 90 | 85 | 90 | 90 | 95 |  |  |  |
| N.N#CC(C#N)c1nc(-c2ccc(C(F)(F)F)cc2)nc(N)c1Cl [Compound 318] | 90 | 80 | 90 | 80 |  |  |  |  |  |  |  |  |  | 80 | 100 |  |  |  |  |
| COc1c(Cl)ccc(-c2nc(N)c(Cl)c(C(C#N)C#N)n2)c1F.N [Compound 359] | 90 | 90 |  | 80 | 100 | 80 |  | 90 |  | 90 | 100 | 100 |  |  | 100 |  | 80 | 90 | Effect in % in respect of stated plant, LOLMU (Lolium multiflorum; [19]): 80% |
| N.N#CC(C#N)c1nc(-c2ccc(Cl)cc2)nc(N)c1Cl [Ex. No. 308, Ammonium [6-amino-5-chloro-2-(4-chlorophenyl)pyrimidin-4-yl](dicyano)methanide] | 93 | 100 | 97 | 93 | 100 | 90 | 88 | 88 | 92 | 80 | 100 | 90 | 95 | 90 | 100 | 100 | 87 | 90 | Effect in % in respect of stated plant, ALOMY (Alopecurus myosuroides; [19]): 80% |
| N#CC(C#N)c1nc(-c2ccc([N+](=O)[O-])cc2)nc(N)c1Cl [compound 9] |  |  |  |  |  |  |  |  |  |  |  |  |  |  | 80 | 90 |  |  | herbicidal effect (Sinapis alba): very good herbicidal effect; herbicidal effect (Avena fatua): very good herbicidal effect; herbicidal effect (Stellaria media [17]): very good herbicidal effect; herbicidal effect (Echinochloa crus-galli [18]): very good herbicidal effect; herbicidal effect (Lolium multiflorum; [20]): very good herbicidal effect; herbicidal effect (Setaria viridis [16]; [20]): very good herbicidal effect; herbicidal effect (Abutilon theophrasti [9]; [20]): very good herbicidal effect; herbicidal effect (Amaranthus retroflexus [10]; [20]): very good herbicidal effect; herbicidal effect (Alopecurus myosuroides; [20]): very good herbicidal effect |
